US20230105212A1, “BIPHENYL DERIVATIVE INHIBITOR, PREPARATION METHOD THEREFOR AND USE THEREOF” (SHANGHAI HANSOH BIOMEDICAL CO., LTD., priority 2020, published 2023)
pEC50, pIC50: −log10 of the molar value. Like-named read-outs stand apart in the source and are kept apart here.

Columns and labels:
[1] = target: T1, human PD-L1 protein (Homo sapiens, UniProt Q9NZQ7); assay: Thermal shift: melting temperature of PD-L1 protein; type: binding; conditions: read-out: ΔTm (° C.)
T1 construct: purchased Acro Biosystems PD1-H5229
T1 sequence (Q9NZQ7 19-238 limits assumed): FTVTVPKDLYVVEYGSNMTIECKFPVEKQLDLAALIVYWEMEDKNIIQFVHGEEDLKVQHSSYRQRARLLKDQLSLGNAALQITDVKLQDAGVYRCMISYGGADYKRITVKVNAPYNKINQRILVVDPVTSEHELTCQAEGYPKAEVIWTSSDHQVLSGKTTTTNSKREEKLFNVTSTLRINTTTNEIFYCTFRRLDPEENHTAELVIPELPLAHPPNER
Method in brief: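 Human PD-L1 at 2 μM final was tested in […], 150 mM NaCl with SYPRO Orange, heated 25→95 °C at 0.03 °C/s in a PCR melt-curve run. Tm was taken per treatment; ΔTm is the shift relative to DMSO vehicle.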

[2] = tested on: CHO-PDL1/Jurkat-PD1 cell pathway; assay: Inhibition of CHO-PDL1/Jurkat-PD1 cell pathway (NFAT luciferase reporter); type: cell-based; conditions: for pEC50: 6 hours incubation, luciferase signal; for maximal fold induction: relative to the signal value of the non-dosed group, read-out: Maximum induction fold
Method in brief: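 CHO-K1 cells stably expressing PD-L1, plated overnight, then co-cultured with PD-1/NFAT-luc2 Jurkat cells plus compounds in RPMI 1640 with 2% FBS for 6 h at 37 °C. Luminescence read after One-Glo, 10 min at RT. EC50 fitted from the concentration–signal curve; maximum induction fold calculated relative to the non-dosed group.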

[3] = target: T2, PD-L1 protein on the surface of MC38-hPDL1 tumor cells (Homo sapiens, UniProt Q9NZQ7); assay: Induction of endocytosis of PD-L1 on the surface of tumor cells (flow cytometry); type: cell-based; conditions: for Emax: MC38-hPDL1 cells, read-out: MC38 maximum endocytosis rate
T2 construct: expressed in transfected cells; host or cells: MC38-hPDL1 (mouse colon cancer cells)
T2 sequence (Q9NZQ7 19-290): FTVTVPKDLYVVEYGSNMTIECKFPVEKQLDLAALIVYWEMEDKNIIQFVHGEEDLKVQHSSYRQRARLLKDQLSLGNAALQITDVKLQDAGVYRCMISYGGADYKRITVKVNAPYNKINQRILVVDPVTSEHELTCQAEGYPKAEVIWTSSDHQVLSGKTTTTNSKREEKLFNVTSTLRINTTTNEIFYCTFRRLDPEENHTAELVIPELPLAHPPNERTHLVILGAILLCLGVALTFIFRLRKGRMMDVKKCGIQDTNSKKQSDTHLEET
Method in brief: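 MC38-hPDL1 mouse colon cancer cells overexpressing human PD-L1 were exposed to compound dilutions for 16 h at 37 °C. Surface PD-L1 was then stained with PE anti-human CD274 for 30 min at room temperature and measured by flow cytometry. Endocytosis rate versus concentration was fitted by nonlinear regression to give IC50.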

[4] = compound 10 μM, PD-L1 protein 2 μM, Tm minus DMSO vehicle control
[5] = inducing endocytosis of PD-L1, MC38-hPDL1 cells, 16 hours incubation, read-out: MC38 IC50

SMILES	ΔTm at 10 µM [1, 4]	Emax ([3]; 16 hours incubation)	pIC50 [3, 5]	pEC50 [2]	maximal fold induction [2]	ΔTm at 10 µM [1]	pIC50 [3]
COc1nc(-c2cccc(-c3cccc(NC(=O)c4nc5c(n4C)CCN(C)C5)c3Cl)c2Cl)ncc1CN1CC(CO)C1 [Embodiment 223, N-(2,2′-Dichloro-3′-(5-((3-(hydroxymethyl)azetidin-1-yl)methyl)-4-methoxypyrimidin-2-yl)-[1,1′-biphenyl]-3-yl)-1,5-dimethyl-4,5,6,7-tetrahydro-1H-imidazo[4,5-c]pyridine-2-carboxamide]	12.3 °C	94%	–	7.14	3.3	–	–
COc1nc(-c2cccc(-c3cccc(NC(=O)c4nc5c(n4C)CCN(C)C5)c3Cl)c2Cl)ccc1CN1CC(F)C1 [Embodiment 120, N-(2,2′-Dichloro-3′-(5-((3-fluoroazetidin-1-yl)methyl)-6-methoxypyridin-2-yl)-[1,1′-biphenyl]-3-yl)-1,5-dimethyl-4,5,6,7-tetrahydro-1H-imidazo[4,5-c]pyridine-2-carboxamide]	–	95%	8.92	7.15	3.2	15.8 °C	–
COc1nc(-c2cccc(-c3cccc(NC(=O)c4nc5c(n4C)CCN(C)C5)c3Cl)c2Cl)cnc1CN1CC2(C1)CN(C(C)=O)C2 [Embodiment 152, N-(3′-(5-((6-Acetyl-2,6-diazaspiro[3.3]heptan-2-yl)methyl)-6-methoxypyrazin-2-yl)-2,2′-dichloro-[1,1′-biphenyl]-3-yl)-1,5-dimethyl-4,5,6,7-tetrahydro-1H-imidazo[4,5-c]pyridine-2-carboxamide]	16.8 °C	97%	9.22	7.18	3.4	–	–
CCC(=O)N1CC2(CN(Cc3ccc(-c4cccc(-c5cccc(NC(=O)c6nc7c(n6C)CCN(C)C7)c5Cl)c4Cl)nc3OC)C2)C1 [Embodiment 188, N-(2,2′-Dichloro-3′-(6-methoxy-5-((6-propionyl-2,6-diazaspiro[3.3]heptan-2-yl)methyl)pyridin-2-yl)-[1,1′-biphenyl]-3-yl)-1,5-dimethyl-4,5,6,7-tetrahydro-1H-imidazo[4,5-c]pyridine-2-carboxamide]	–	97%	–	7.03	3.8	16.5 °C	9.40
CNC(=O)CNCc1cnc(C(=O)Nc2cccc(-c3cccc(NC(=O)c4nc5c(n4C)CCN(C)C5)c3Cl)c2C)cc1OC [Embodiment 95, N-(2-Chloro-3′-(4-methoxy-5-(((2-(methylamino)-2-carbonylethyl)amino)methyl)picolinamido)-2′-methyl-[1,1′-biphenyl]-3-yl)-1,5-dimethyl-4,5,6,7-tetrahydro-1H-imidazo[4,5-c]pyridine-2-carboxamide]	14.4 °C	94%	8.64	7.03	3.8	–	–
COc1nc(-c2cccc(-c3cccc(NC(=O)c4nc5c(n4C)CCN(C)C5)c3Cl)c2Cl)ccc1CN1CC2(COC2)C1 [Embodiment 124, N-(3′-(5-((2-Oxa-6-azaspiro[3.3]heptan-6-yl)methyl)-6-methoxypyridin-2-yl)-2,2′-dichloro-[1,1′-biphenyl]-3-yl)-1,5-dimethyl-4,5,6,7-tetrahydro-1H-imidazo[4,5-c]pyridine-2-carboxamide]	16.2 °C	96%	9.40	–	–	–	–
COc1nc(-c2cccc(-c3cccc(NC(=O)c4nc5c(n4C)CCN(C)C5)c3Cl)c2Cl)cnc1CN1CC(NC(C)=O)C1 [Embodiment 218, N-(3′-(5-((3-Acetylaminoazetidin-1-yl)methyl)-6-methoxypyrazin-2-yl)-2,2′-dichloro-[1,1′-biphenyl]-3-yl)-1,5-dimethyl-4,5,6,7-tetrahydro-1H-imidazo[4,5-c]pyridine-2-carboxamide]	13.7 °C	95%	–	7.27	2.8	–	–
COc1nc(-c2cccc(-c3cccc(NC(=O)c4nc5c(n4C)CCN(C)C5)c3Cl)c2Cl)ncc1CN1CC(CNC(C)=O)C1 [Embodiment 225, N-(3′-(5-((3-(Acetylaminomethyl)azetidin-1-yl)methyl)-4-methoxypyrimidin-2-yl)-2,2′-dichloro-[1,1′-biphenyl]-3-yl)-1,5-dimethyl-4,5,6,7-tetrahydro-1H-imidazo[4,5-c]pyridine-2-carboxamide]	–	93%	–	–	–	–	–

Further lines, with some results ahead:

ΔTm at 10 µM [1, 4]	Emax ([3]; 16 hours incubation)	pIC50 [3, 5]	SMILES	pEC50 [2]	maximal fold induction [2]	ΔTm at 10 µM [1]	pIC50 [3]
20.6 °C	96%	9.22	COc1nc(-c2cccc(-c3cccc(NC(=O)c4nc5c(n4C)CCN(C)C5)c3Cl)c2Cl)ccc1CN1CC(NC(C)=O)C1 [Embodiment 180, N-(3′-(5-((3-Acetylaminoazetidin-1-yl)methyl)-6-methoxypyridin-2-yl)-2,2′-dichloro-[1,1′-biphenyl]-3-yl)-1,5-dimethyl-4,5,6,7-tetrahydro-1H-imidazo[4,5-c]pyridine-2-carboxamide]	7.33	3.1	–	–
18 °C	98%	9.40	COc1nc(-c2cccc(-c3cccc(NC(=O)c4nc5c(n4C)CCN(C)C5)c3Cl)c2Cl)ccc1CN[C@H]1CCOC[C@@H]1O (relative stereo) [Embodiment 175, N-(2,2′-Dichloro-3′-(5-((((3,4-trans)-3-hydroxytetrahydro-2H-pyran-4-yl)amino)methyl)-6-methoxypyridin-2-yl)-[1,1′-biphenyl]-3-yl)-1,5-dimethyl-4,5,6,7-tetrahydro-1H-imidazo[4,5-c]pyridine-2-carboxamide]	7.07	3.6	–	–
17.1 °C	97%	9.00	COc1nc(-c2cccc(-c3cccc(NC(=O)c4nc5c(n4C)CCN(C)C5)c3Cl)c2Cl)ccc1CN1CC2(CCC(=O)N2)C1 [Embodiment 126, N-(2,2′-Dichloro-3′-(6-methoxy-5-((6-carbonyl-2,5-diazaspiro[3.4]octan-2-yl)methyl)pyridin-2-yl)-[1,1′-biphenyl]-3-yl)-1,5-dimethyl-4,5,6,7-tetrahydro-1H-imidazo[4,5-c]pyridine-2-carboxamide]	7.03	3.5	–	–
16.6 °C	97%	9.00	COc1nc(-c2cccc(-c3cccc(NC(=O)c4nc5c(n4C)CCN(C)C5)c3Cl)c2Cl)ccc1CNC(CO)CO [Embodiment 174, N-(2,2′-Dichloro-3′-(5-(((1,3-dihydroxypropan-2-yl)amino)methyl)-6-methoxypyridin-2-yl)-[1,1′-biphenyl]-3-yl)-1,5-dimethyl-4,5,6,7-tetrahydro-1H-imidazo[4,5-c]pyridine-2-carboxamide]	7.18	3.5	–	–
13.5 °C	97%	9.05	COc1nc(-c2cccc(-c3cccc(NC(=O)c4nc5c(n4C)CCN(C)C5)c3Cl)c2Cl)ccc1CN1CC(O)(CO)C1 [Embodiment 173, N-(2,2′-Dichloro-3′-(5-((3-hydroxy-3-(hydroxymethyl)azetidin-1-yl)methyl)-6-methoxypyridin-2-yl)-[1,1-biphenyl]-3-yl)-1,5-dimethyl-4,5,6,7-tetrahydro-1H-imidazo[4,5-c]pyridine-2-carboxamide]	7.09	3.7	–	–
14 °C	97%	9.52	COc1nc(-c2cccc(-c3cccc(NC(=O)c4nc5c(n4C)CCN(C)C5)c3Cl)c2Cl)ccc1CN1CC2(C1)CN(S(C)(=O)=O)C2 [Embodiment 192]	7.07	3.8	–	–
21 °C	95%	–	COc1nc(-c2cccc(-c3cccc(NC(=O)c4nc5c(n4C)CCN(C)C5)c3Cl)c2Cl)ccc1CN1CC(C(=O)N(C)C)C1 [Embodiment 183, N-(2,2′-Dichloro-3′-(5-((3-(dimethylcarbamoyl)azetidin-1-yl)methyl)-6-methoxypyridin-2-yl)-[1,1′-biphenyl]-3-yl)-1,5-dimethyl-4,5,6,7-tetrahydro-1H-imidazo[4,5-c]pyridine-2-carboxamide]	–	–	–	–
17.9 °C	95%	8.92	COc1nc(-c2cccc(-c3cccc(NC(=O)c4nc5c(n4C)CCN(C)C5)c3Cl)c2Cl)ccc1CNC1COC1 [Embodiment 114, N-(2,2′-Dichloro-3′-(6-methoxy-5-((oxetan-3-ylamino)methyl)pyridin-2-yl)-[1,1′-biphenyl]-3-yl)-1,5-dimethyl-4,5,6,7-tetrahydro-1H-imidazo[4,5-c]pyridine-2-carboxamide]	–	–	–	–
18.7 °C	97%	9.15	COc1nc(-c2cccc(-c3cccc(NC(=O)c4nc5c(n4C)CCN(C)C5)c3Cl)c2Cl)ccc1CNC[C@H](C)O [Embodiment 127, (S)—N-(2,2′-Dichloro-3′-(5-(((2-hydroxypropyl)amino)methyl)-6-methoxypyridin-2-yl)-[1,1′-biphenyl]-3-yl)-1,5-dimethyl-4,5,6,7-tetrahydro-1H-imidazo[4,5-c]pyridine-2-carboxamide]	–	–	–	–
